Values joined by “and” are separate entries in the source; they are usually repeats but may differ in a detail not shown here. Equal entries are not always repeated.
Experiments:
[1] = known immunosuppressive agents; listed as AZA; cited from earlier work
[2] = test system: contact sensitivity response to 2,4-dinitrofluorobenzene (DNFB); test: Contact Sensitivity Response to DNFB in Mice (ear swelling); assay type: in vivo, Balb/c female mice
Procedure: Balb/c female mice ([…].20 g, Charles River) were sensitized on the shaved abdomen with 25 μl of 0.5% 2,4-dinitrofluorobenzene (DNFB, Eastman Kodak Co.) in a vehicle of 4:1 acetone:olive oil on days 0 and 1. Mice were ear challenged with 20 μl of 0.2% DNFB in a vehicle of 4:1 acetone:olive oil on day 5. An identical segment of the ear was measured immediately before challenge and 24 hours later with an engineer's micrometer. Ear swelling was expressed as the difference in ear thickness before and after challenge in units of 10^-4 inches±SEM. Percent suppression was calculated as: [formula] […] Control animals received only vehicle (0.25% Methocel®). Negative controls were not sensitized on days 0 and 1 but were ear challenged on day 5. Ten mice were used per group.
Contact sensitivity to DNFB is a form of delayed-type hypersensitivity which has been extensively studied to gain an understanding of the regulation of immunologic processes (Claman et. al. (1980), Immunological Rev. 50:105-132). This reaction is mediated by T lymphocytes that become sensitized to antigen by proliferating and developing into mature effector cells (Claman et. al. (1980), Immunological Rev. 105-132). This cell-mediated immune response (T-cell mediated immunity) is central to many disease states such as organ transplantation rejection and graft versus host disease (Benacerraf and Unanue (1979), Textbook of Immunology, Williams & Wilkins Co.,; Eisen (1980), Immunology, An Introduction to Molecular and Cellular Principles of the Immune Responses, Harper & Row, Inc.; Loveland and McKenzie (1982), Inflammation, Basic Principles and Clinical Correlates, Raven Press). […]

[3] = test system: dihydroorotate dehydrogenase; conditions: consequent inhibition of pyrimidine nucleotide biosynthesis; Chen et al. (1986); cited from earlier work
[4] = Table 1, 0.4 mg/kg oral, days 0-6
[5] = Table 1, 2.0 mg/kg oral, days 0-6
[6] = Table 1, 10.0 mg/kg oral, days 0-6
[7] = Table 1, 20.0 mg/kg oral, days 0-6
[8] = Table 4, dosing only day 0 and 1, 20.0 mg/kg

In the case of `Cn1cnc([N+](=O)[O-])c1Sc1ncnc2nc[nH]c12` [Azathioprine, reference compound], the “clinically observed toxicities / side effects” value [1] is given as “nephrotoxicity and hepatoxicity”, the “Azathioprine ED50” value ([2]; Table 3, Ex. 28 at 0 mg/kg) is given as 38.0 mg/kg and the “Azathioprine ED50” value ([2]; Table 3, with Ex. 28 at 0.1 mg/kg) is given as 42.0 mg/kg. The “Azathioprine ED50” value ([2]; Table 3, with Ex. 28 at 0.3 mg/kg) was 43.0 mg/kg, the “Azathioprine ED50” value ([2]; Table 3, with Ex. 28 at 1.0 mg/kg) was 7.5 mg/kg and the “Azathioprine ED50” value ([2]; Table 3, with Ex. 28 at 3.0 mg/kg) was < 6.3 mg/kg. The “Azathioprine ED50” value ([2]; Table 3, with Ex. 28 at 10.0 mg/kg) was < 6.3 mg/kg, the “% Suppression of Ear Swelling” value ([2]; agent alone, 6.3 mg/kg, days 0-6) was 2.5 ± 4.2% and the “% Suppression of Ear Swelling” value ([2]; agent alone, 12.5 mg/kg, days 0-6) was 15.9 ± 3.3%. The “% Suppression of Ear Swelling” value ([2]; agent alone, 12.5 mg/kg, days 0-6, listed as azathioprine) was 15.9%, the “% Suppression of Ear Swelling” value ([2]; agent alone, 25.0 mg/kg, days 0-6) was 29.7 ± 4.1% and the “% Suppression of Ear Swelling” value ([2]; agent alone, 50.0 mg/kg, days 0-6) was 72.1 ± 3.1%. The “% Suppression of Ear Swelling” value ([2]; agent alone, 100.0 mg/kg, days 0-6) was 97.7 ± 1.6%.

For `Cc1c(-c2ccc(-c3ccccc3F)cc2)nc2ccc(F)cc2c1C(=O)O` [Example 28, 2-(2'-fluoro-1,1'-biphenyl-4-yl)-6-fluoro-3-methyl-4-quinoline carboxylic acid], the “unique mechanism of action: inhibition of dihydroorotate dehydrogenase” value [3] is given as “inhibition of dihydroorotate dehydrogenase”, the ED50 ([2]; Mus musculus, Table 1, agent alone, oral, days 0-6) is given as 0.95 mg/kg and the “% Suppression” value [2, 4] is given as 30.20%. For the same molecule, the “Ear Swelling (units ± SEM), increase in ear thickness from day 5 to day 6” value (“Ear Swelling (units ± SEM), increase” for short) [2, 4] was 51.95 ± 2.33 10^-4 inches, the “% Suppression” value [2, 5] was 66.10% and the “Ear Swelling (units ± SEM), increase” value [2, 5] was 25.61 ± 3.39 10^-4 inches. For the same molecule, the “% Suppression” value [2, 6] was 92.28%, the “Ear Swelling (units ± SEM), increase” value [2, 6] was 6.40 ± 1.09 10^-4 inches and the “% Suppression” value [2, 7] was 94.53%. For the same molecule, the “Ear Swelling (units ± SEM), increase” value [2, 7] was 4.75 ± 1.20 10^-4 inches, the “Ex. 28 ED50” value ([2]; Table 2, with cyclosporin A 6.3 mg/kg) was 1.0 mg/kg and the “Ex. 28 ED50” value ([2]; Table 2, with cyclosporin A 12.5 mg/kg) was 0.8 mg/kg. For the same molecule, the “Ex. 28 ED50” value ([2]; Table 2, with cyclosporin A 25.0 mg/kg) was 0.7 mg/kg, the “Ex. 28 ED50” value ([2]; Table 2, with cyclosporin A 30.0 mg/kg) was 0.4 mg/kg and the “Ex. 28 ED50” value ([2]; Table 2, with cyclosporin A 50.0 mg/kg) was 0.4 mg/kg. For the same molecule, the “Ex. 28 ED50” value ([2]; Table 2, with cyclosporin A 70.0 mg/kg) was < 0.3 mg/kg, the “Ex. 28 ED50” value ([2]; Table 3, with azathioprine 6.3 mg/kg) was 1.3 mg/kg and the “Ex. 28 ED50” value ([2]; Table 3, with azathioprine 12.5 mg/kg) was 0.8 mg/kg. The “Ex. 28 ED50” value ([2]; Table 3, with azathioprine 25.0 mg/kg) was 0.7 mg/kg, the “Ex. 28 ED50” value ([2]; Table 3, with azathioprine 50.0 mg/kg) was < 0.1 mg/kg and the “Ex. 28 ED50” value ([2]; Table 3, with azathioprine 100.0 mg/kg) was < 0.1 mg/kg. The “% Suppression” value [2, 8] was 14.4%, the “ΔEar Swelling” value [2, 8] was 59.6 ± 2.5 and the “Ex. 28 ED50” value ([2]; Tables 2 and 3, cyclosporin A / azathioprine at 0 mg/kg) was 1.4 mg/kg. The “% Suppression of Ear Swelling” value ([2]; agent alone, 0.1 mg/kg, days 0-6, listed as Ex. 28, 0.1 mg/kg) was 6.5 ± 2.9% and 6.5 ± 2.8%, the “% Suppression of Ear Swelling” value ([2]; agent alone, 0.3 mg/kg, days 0-6) was 7.3 ± 2.4% and the “% Suppression of Ear Swelling” value ([2]; agent alone, 1.0 mg/kg, days 0-6) was 31.4%. The “% Suppression of Ear Swelling” value ([2]; agent alone, 1.0 mg/kg, days 0-6, listed as Ex. 28, 1 mg/kg) was 31.4 ± 3.3%, the “% Suppression of Ear Swelling” value ([2]; agent alone, 3.0 mg/kg, days 0-6) was 91.9 ± 2.3% and the “% Suppression of Ear Swelling” value ([2]; agent alone, 10.0 mg/kg, days 0-6) was 93.9 ± 2.4%.

Reference: patent US5204329A, “Treatment of organ transplantation rejection” (Du Pont Merck Pharmaceutical Company, priority 1990, dated 1993)
